# Measurements taken from US20230263729A1, “POLY(ETHYLENE GLYCOL)-BLOCK-POLY(PROPYLENE SULFIDE) NANOCARRIER PLATFORM FOR ENHANCED EFFICACY OF IMMUNOSUPPRESSIVE AGENTS” (Northwestern University, priority 2019, published 2023).
# Experiments:
# [1] = test system: allogeneic islet graft; assay: Intraportal fully-MHC mismatched allogeneic islet transplantation; assay type: in vivo, C57BL/6J mice; conditions: standard dosage: 11 daily injections, 1 mg rapamycin per kg
# Procedure: Allogeneic Islet Transplantation—Diabetes was induced via streptozotocin (IP; 190 mg/kg) injection five days prior to transplantation and confirmed via hyperglycemia (blood glucose>400 mg/dl). Starting the day prior to transplantation, mice were injected with PBS, PS, rapamycin, or rPS (N=3 per group) at 1 mg/kg (or equivalent) in accordance with a standard dosage (11 doses, given daily) or a low dosage (6 doses, given every 3rd day). On the day of transplantation, islets were isolated from Balb/c mice via common bile duct cannulation and pancreas distension with collagenase. Islets isolated from two donors (˜200 mouse islets, ˜175 IEQ) were transplanted to C57B6/J recipients via the portal vein. Body weight and blood glucose concentration were monitored closely for 100 days post-transplantation. Intraperitoneal glucose tolerance test (IPGTT) was performed one-month post transplantation. The animals were fasted for 16 hours before being injected intraperitoneally with 2 g dextrose (200 g/L; Gibco) per kg body weight. Blood glucose concentrations were measured at 0, 15, 30, 60- and 120-minutes post-injection.
# [2] = test system: genes associated with rapamycin side effects; assay: Single cell RNA sequencing of spleen macrophages and CD4+ regulatory T cells; assay type: in vivo, C57BL/6J mice; conditions: 1 mg/kg s.c. 11 days
# Procedure: Single Cell RNA Sequencing—Healthy C57BL/6J mice were subjected to a “standard dosage regime.” Animals were injected subcutaneously for 11 days with rapamycin (in 0.2% CMC) or rPS at a dose of 1 mg/kg. Equivalent dose of 1×PBS or PS were injected as controls. After 11 days, the mice were sacrificed, and the liver and spleen were excised. The organs were processed as was done for flow cytometry. CD4+ regulatory T cells and macrophages were isolated using magnetic sorting (MojoSort; BioLegend). Briefly, cells were first incubated in a cocktail of PE anti-mouse CD169 and PE anti-mouse F4/80 antibodies (BioLegend). After washing, incubation in anti-PE nanobeads (BioLegend) occurred. Macrophages were magnetically sorted from non-macrophages. The non-macrophages cell fraction was then incubated in mouse CD4+ T cell isolation biotin-antibody cocktail (BioLegend) and sorted. The CD4+ T cell fraction was then incubated in APC anti-mouse CD25 antibody (BioLegend), followed by washing, incubation in anti-APC nanobeads (BioLegend) and sorting. RNA was isolated from separated macrophages and CD4+ regulatory T cells using R-Neasy Mini Kit with DNAse digestion (Qiagen), Samples were frozen and shipped to Admera Health where they underwent library preparation using the Lexogen 3′ mRNA-Seq Library Prep Kit FWD HT (Lexogen) and were sequenced on an Illumina sequencer (HiSeq 2500 2×150 bp). For each pair, Read 2 was discarded and only Read 1 was used for downstream data analysis. Sequencing quality was analyzed with FastQC v0.11.5^47 and reads were trimmed and filtered with Trimmomatic v0.3948. One sample from the spleen T cell PBS treatment group and one sample from the spleen T cell rapamycin treatment group were discarded due to low sequencing quality. Reads were aligned with STAR v2.6.0a 49 to the GRCm38.p6 mouse reference genome primary assembly using the GRCm38.p6 mouse reference primary comprehensive gene annotation (https://www.gencodegenes.org/mouse/). Quantification and differential expression was performed with Cuffdiff from Cufflinks v2.2.150-52 again using the GRCm38.p6 mouse reference primary comprehensive gene annotation and a 0.05 FDR. Detailed settings for each software are included in Table S1.
# [3] = in vivo; cited from earlier work
# [4] = test system: red blood cells; conditions: in vivo; cited from earlier work
# [5] = test system: hair follicles at injection site; assay: Alopecia assessment (dorsal photos, H&E histology); assay type: in vivo, C57BL/6J mice
# From the text: Alopecia Assessment—Dorsal photos were taken weekly to assess for alopecia. At 100-days post-transplantation, the mice were euthanized and skin samples were excised in the dorsal region at the subcutaneous injection site. Skin samples were placed in cassettes, fixed in 4% paraformaldehyde, and embedded in paraffin. Tissue blocks were sectioned at a thickness of […] and stained with hematoxylin and eosin (H&E). Digital images were taken on a Nikon microscope.
smiles,measurement,setting,value
CO[C@H]1C[C@@H]2CC[C@@H](C)[C@@](O)(O2)C(=O)C(=O)N2CCCC[C@H]2C(=O)O[C@H]([C@H](C)C[C@@H]2CC[C@@H](O)[C@H](OC)C2)CC(=O)[C@H](C)/C=C(\C)[C@@H](O)[C@@H](OC)C(=O)[C@H](C)C[C@H](C)/C=C/C=C/C=C/1C [rapamycin],mice remaining normoglycemic 100 days post transplantation,[1],71%
same,ACAA1 Fold Change,[2]; Spleen CD4+ Regulatory T Cells,−3.833
same,CD79A Fold Change,[2]; Spleen CD4+ Regulatory T Cells,−24
same,CRKL Fold Change,[2]; Spleen CD4+ Regulatory T Cells,7.387
same,MZB1 Fold Change,[2]; Spleen CD4+ Regulatory T Cells,−24
same,PIK3R1 Fold Change,[2]; Spleen CD4+ Regulatory T Cells,−12
same,IGF1 Fold Change,[2]; Spleen Macrophages,−9.108
same,MGAT1 Fold Change,[2]; Spleen Macrophages,5.0747
same,ZDHHC3 Fold Change,[2]; Spleen Macrophages,−8.143
same,patients impacted by alopecia,[3],approximately 10%
same,partition into red blood cells,[4],95%
same,"hair follicles, histological analysis",[5]; low dosage,some mature follicles present
same,injection site alopecia,[5]; low dosage,alopecia was reduced
same,injection site alopecia,[5]; mice treated with free rapamycin,experienced injection site alopecia
same,"hair follicles, histological analysis",[5]; standard dosage,Only immature follicles
